The values that follow come from ChEMBL document CHEMBL5335848, “Penicilloneines A and B, Quinolone-Citrinin Hybrids from a Starfish-Derived Penicillium sp” (2024).

In brackets after ≈: the same amount, converted by molar mass. Activity calls are given as the source filed them. No cut-off for these calls is given here.

For test [1], the system named is Colletotrichum gloeosporioides. The test is described as follows: Antifungal activity against Colletotrichum gloeosporioides assessed as fold decrease in 3-carboxymuconate cyclase encoding gene expression by qRT-PCR analysis relative to control. It is filed as functional. A general note: Real-time PCR tracks product formation cycle by cycle.
In test [2] the test system is Colletotrichum gloeosporioides. The test is described as follows: Antifungal activity against Colletotrichum gloeosporioides assessed as induction of morphological changes by measuring aggregation of particles into clusters in cytoplasm at 5 mg/L incubated for 24 hrs by TEM analysis. It is filed as functional, organism-based.
The test system of test [3] is Colletotrichum gloeosporioides. Briefly: Antifungal activity against Colletotrichum gloeosporioides assessed as increase in acetylcholinesterase encoding gene expression by RNA-seq analysis. It is filed as functional, organism-based.
Test [4] concerns Colletotrichum gloeosporioides. The test is described as follows: Antifungal activity against Colletotrichum gloeosporioides assessed as fold increase in glycosyl hydrolase encoding gene expression by qRT-PCR analysis relative to control. It is filed as functional.
Test [5] has as its system Colletotrichum gloeosporioides. The test is described as follows: Antifungal activity against Colletotrichum gloeosporioides assessed as fold increase in lipase encoding gene expression by qRT-PCR analysis relative to control. It is filed as functional.
The test system of test [6] is Colletotrichum gloeosporioides. Briefly: Antifungal activity against Colletotrichum gloeosporioides assessed as fold decrease in oxalate decarboxylase encoding gene expression by qRT-PCR analysis relative to control. It is filed as functional.
Test [7] concerns Colletotrichum gloeosporioides. Briefly: Antifungal activity against Colletotrichum gloeosporioides assessed as induction of morphological changes by measuring appearance of cavities at 5 mg/L incubated for 24 hrs by TEM analysis. It is filed as functional, organism-based.
Test [8] deals with Colletotrichum gloeosporioides. Briefly: Antifungal activity against Colletotrichum gloeosporioides assessed as fold increase in acetylcholinesterase encoding gene expression by qRT-PCR analysis relative to control. It counts as functional.
Test [9] concerns Colletotrichum gloeosporioides. The test is described as follows: Antifungal activity against Colletotrichum gloeosporioides assessed as inhibition of mycelial growth incubated for 3 days by cross-bonded method. It is filed as functional. Particulars: for LC50: 72 h, time 3 day; for Activity: time 3.0 day.
Test [10] deals with Colletotrichum gloeosporioides. Briefly: Antifungal activity against Colletotrichum gloeosporioides assessed as induction of morphological changes by measuring appearance of evident craters on surface at 5 mg/L measured after 48 hrs by SEM analysis. It counts as functional, organism-based.
The subject of test [11] is Colletotrichum gloeosporioides. Briefly: Antifungal activity against Colletotrichum gloeosporioides assessed as induction of morphological changes by measuring appearance of twisted hyphae at 5 mg/L measured after 48 hrs by SEM analysis. It counts as functional, organism-based.
The test system of test [12] is Colletotrichum gloeosporioides. The test is described as follows: Antifungal activity against Colletotrichum gloeosporioides assessed as increase in putative hydrolase encoding gene expression by RNA-seq analysis. It counts as functional, organism-based.
Test [13] has as its system Colletotrichum gloeosporioides. The test is described as follows: Antifungal activity against Colletotrichum gloeosporioides assessed as decrease in phosphoketolase encoding gene expression by RNA-seq analysis. It is filed as functional, organism-based.
In test [14] the test system is Colletotrichum gloeosporioides. The test is described as follows: Antifungal activity against Colletotrichum gloeosporioides assessed as fold increase in putative hydrolase encoding gene expression by qRT-PCR analysis relative to control. It counts as functional.
Test [15] relates to Colletotrichum gloeosporioides. The test is described as follows: Antifungal activity against Colletotrichum gloeosporioides assessed as fold increase in beta-galactosidase encoding gene expression by qRT-PCR analysis relative to control. It counts as functional.
The test system of test [16] is Colletotrichum gloeosporioides. The test is described as follows: Antifungal activity against Colletotrichum gloeosporioides assessed as induction of morphological changes by measuring appearance of clustered/bundled hyphae at 5 mg/L measured after 48 hrs by SEM analysis. It is filed as functional, organism-based.
The test system of test [17] is Colletotrichum gloeosporioides. Briefly: Antifungal activity against Colletotrichum gloeosporioides assessed as induction of morphological changes by measuring separation of plasma membrane from cell wall at 5 mg/L incubated for 24 hrs by TEM analysis. It counts as functional, organism-based.
The subject of test [18] is Colletotrichum gloeosporioides. Briefly: Antifungal activity against Colletotrichum gloeosporioides assessed as increase in beta-galactosidase encoding gene expression by RNA-seq analysis. It counts as functional, organism-based.
Test [19] deals with Colletotrichum gloeosporioides. The test is described as follows: Antifungal activity against Colletotrichum gloeosporioides assessed as fold decrease in pyruvate decarboxylase encoding gene expression by qRT-PCR analysis relative to control. It counts as functional.
Test [20] has as its system Colletotrichum gloeosporioides. Briefly: Antifungal activity against Colletotrichum gloeosporioides assessed as induction of morphological changes by measuring appearance of vacuolizations at 5 mg/L incubated for 24 hrs by TEM analysis. It is filed as functional, organism-based.
The subject of test [21] is Colletotrichum gloeosporioides. Briefly: Antifungal activity against Colletotrichum gloeosporioides assessed as fold increase in leucine aminopeptidase encoding gene expression by qRT-PCR analysis relative to control. It is filed as functional.
Test [22] has as its system Colletotrichum gloeosporioides. The test is described as follows: Antifungal activity against Colletotrichum gloeosporioides assessed as induction of morphological changes by measuring reduction in high density particles in cytoplasm at 5 mg/L incubated for 24 hrs by TEM analysis. It counts as functional, organism-based.
Test [23] has as its system Colletotrichum gloeosporioides. Briefly: Antifungal activity against Colletotrichum gloeosporioides assessed as increase in leucine aminopeptidase encoding gene expression by RNA-seq analysis. It is filed as functional, organism-based.
Test [24] relates to Colletotrichum gloeosporioides. The test is described as follows: Antifungal activity against Colletotrichum gloeosporioides assessed as increase in lipase encoding gene expression by RNA-seq analysis. It is filed as functional, organism-based.
Test [25] relates to Colletotrichum gloeosporioides. Briefly: Antifungal activity against Colletotrichum gloeosporioides assessed as decrease in pyruvate decarboxylase encoding gene expression by RNA-seq analysis. It counts as functional, organism-based.
Test [26] concerns Colletotrichum gloeosporioides. The test is described as follows: Antifungal activity against Colletotrichum gloeosporioides assessed as decrease in oxalate decarboxylase encoding gene expression by RNA-seq analysis. It is filed as functional, organism-based.
For test [27], the system named is Colletotrichum gloeosporioides. Briefly: Antifungal activity against Colletotrichum gloeosporioides assessed as induction of morphological changes by measuring increase in low density particles in cytoplasm at 5 mg/L incubated for 24 hrs by TEM analysis. It counts as functional, organism-based.
In test [28] the test system is Colletotrichum gloeosporioides. The test is described as follows: Antifungal activity against Colletotrichum gloeosporioides assessed as induction of morphological changes by measuring appearance of distorted hyphae at 5 mg/L measured after 48 hrs by SEM analysis. It counts as functional, organism-based.
Test [29] relates to Colletotrichum gloeosporioides. The test is described as follows: Antifungal activity against Colletotrichum gloeosporioides assessed as induction of morphological changes by measuring appearance of disorganized organelles at 5 mg/L incubated for 24 hrs by TEM analysis. It is filed as functional, organism-based.
Test [30] concerns Colletotrichum gloeosporioides. The test is described as follows: Antifungal activity against Colletotrichum gloeosporioides assessed as induction of morphological changes by measuring degradation of plasma membrane at 5 mg/L incubated for 24 hrs by TEM analysis. It counts as functional, organism-based.
For test [31], the system named is Colletotrichum gloeosporioides. The test is described as follows: Antifungal activity against Colletotrichum gloeosporioides assessed as fold decrease in phosphoketolase encoding gene expression by qRT-PCR analysis relative to control. It counts as functional.
Test [32] has as its system Colletotrichum gloeosporioides. Briefly: Antifungal activity against Colletotrichum gloeosporioides assessed as induction of morphological changes by measuring disappearance of organelles at 5 mg/L incubated for 24 hrs by TEM analysis. It is filed as functional, organism-based.
The subject of test [33] is Colletotrichum gloeosporioides. Briefly: Antifungal activity against Colletotrichum gloeosporioides assessed as decrease in 3-carboxymuconate cyclase encoding gene expression by RNA-seq analysis. It counts as functional, organism-based.
The subject of test [34] is Colletotrichum gloeosporioides. Briefly: Antifungal activity against Colletotrichum gloeosporioides assessed as increase in glycosyl hydrolase encoding gene expression by RNA-seq analysis. It counts as functional, organism-based.
For test [35], the system named is Colletotrichum gloeosporioides. Briefly: Antifungal activity against Colletotrichum gloeosporioides assessed as disruption of cell wall at 5 mg/L incubated for 24 hrs by TEM analysis. It counts as functional, organism-based.

By LC50 is commonly meant the concentration that kills 50% of the test population. In the case of `CC1=C2C(=CO[C@H](C)[C@H]2C)C(O)=C(Cc2c(O)c3ccccc3n(C)c2=O)C1=O`, the “fold change (FC)” value was 386 in test [1]; 1.7 in [4]; 8.9 in test [5]; 23.8 in test [6]; 6 in test [8]; 14 in test [14]. Moreover, the “fold change (FC)” value is listed as 4.7 in [15], 215 in [19], 3.5 in test [21] and 1.47 in test [31]. Also, the result in test [2], in [3], in test [7], in test [10], in [11] and in [12] was Active. Moreover, the result in [13], in test [16], in test [17], in test [18], in [20] and in test [22] was Active. Further, the result in test [23], in test [24], in test [25], in [26], in test [27] and in [28] was Active. Moreover, the outcome in test [29], in test [30], in test [32], in [33] and in test [34] was Active. Also, the LC50 in test [9] is 0.02 µg/mL (≈ 0.0508 µM).
`Cc1c(O)c(C(=O)O)c(O)c2c1[C@H](C)[C@@H](C)OC2=O`: the outcome in [9] was Active.
Consider Mancozeb, for which the outcome in [35], in [9] and in [20] was Active.
Consider `Cn1c(=O)cc(O)c2ccccc21`, for which, in test [9], the result was Active.
Same read-out and setting: to `CC1=C2C(=CO[C@H](C)[C@H]2C)C(O)=C(C(=O)O)C1=O` belongs “Active”.
For the compound `Cc1c(O)c(Cc2c(O)c3ccccc3n(C)c2=O)c(O)c2c1[C@H](C)[C@@H](C)OC2=O`, in test [9], the 50% lethal concentration (LC50) was 1.51 µg/mL (≈ 3.69 µM).
